As a reminder, the IC50 is the concentration needed to halve the response being measured. What is called MRT is the average time that molecules of a dose stay in the body. One may read the EC50 as the concentration needed to bring the measured effect to its halfway point. By CC50 is commonly meant the concentration at which the toxic effect on the cells reaches its halfway point. What is called EC90 is the concentration at which the effect reaches the 90% level.

Structures are written as SMILES. Active and inactive are the calls of the source. The rule behind the calls is not given here.

Here are results for one compound from ChEMBL document CHEMBL6071156 (Eur J Med Chem, 2024).

For data set [1], the system named is Chikungunya virus. Format: functional, organism-based. To be noted: dose 300.0 mg/kg/day, time 5-6 day.
The nature of data set [2]: Metabolic stability in human liver S9 fraction assessed as half life by HPLC-MS/MS analysis. Format: ADME, subcellular.
A short description of data set [3]: Metabolic stability in CD-1 mouse liver microsomes assessed as half life by HPLC-MS/MS analysis. Format: ADME, Microsome.
Another data set has as its target Cytochrome P450 2D6 (Homo sapiens, UniProt P10635). The experiment in a line: Inhibition of CYP2D6 (unknown origin). The class given is ADME.
Data set [4] can be described thus: MRT in C57BL/6 mouse plasma at 2.5 mg/kg, iv measured upto 24 hrs post dosing by LC-MS/MS. The class given is ADME, organism-based. As to conditions: in vivo.
A short description of data set [5]: Oral bioavailability in C57BL/6 mouse plasma at 10 mg/kg, measured upto 24 hrs by LC-MS/MS. Format: ADME, organism-based. To be noted: in vivo.
In data set [6] the target is Polyprotein P1234 (Chikungunya virus (strain S27-African prototype) (CHIKV)) (UniProt Q8JUX6). To be noted: dose 0.27-600 µM.
In data set [7] the target is T1, Potassium voltage-gated channel subfamily KQT member 1 (Homo sapiens, UniProt P51787).
T1 sequence (P51787 whole entry): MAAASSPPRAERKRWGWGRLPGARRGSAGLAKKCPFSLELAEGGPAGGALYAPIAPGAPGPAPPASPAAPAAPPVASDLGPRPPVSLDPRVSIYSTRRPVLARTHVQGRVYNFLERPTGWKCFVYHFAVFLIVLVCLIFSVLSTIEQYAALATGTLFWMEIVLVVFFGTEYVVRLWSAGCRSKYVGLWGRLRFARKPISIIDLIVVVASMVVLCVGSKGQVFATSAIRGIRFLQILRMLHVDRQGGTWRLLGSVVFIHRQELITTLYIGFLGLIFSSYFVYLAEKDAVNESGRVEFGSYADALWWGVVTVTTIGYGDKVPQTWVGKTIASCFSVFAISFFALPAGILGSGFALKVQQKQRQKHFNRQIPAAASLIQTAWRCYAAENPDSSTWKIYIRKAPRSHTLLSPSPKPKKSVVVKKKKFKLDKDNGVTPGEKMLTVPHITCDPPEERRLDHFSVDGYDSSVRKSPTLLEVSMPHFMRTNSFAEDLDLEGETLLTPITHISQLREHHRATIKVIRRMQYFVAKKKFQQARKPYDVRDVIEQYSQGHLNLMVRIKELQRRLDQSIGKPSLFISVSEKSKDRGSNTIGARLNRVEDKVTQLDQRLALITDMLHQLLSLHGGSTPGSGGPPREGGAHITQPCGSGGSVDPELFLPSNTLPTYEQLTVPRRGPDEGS
The experiment in a line: Antagonist activity at recombinant hKCNQ1/hmink expressed in CHO-K1 cells by Electrophysiology. The class given is toxicity, cell-based.

The subject of data set [8] is Chikungunya virus. Description: Antiviral activity against CHIKV S27 in green monkey Vero 76 cells assessed as reduction in virus-induced cytopathic effect. Format: functional, organism-based. As to conditions: S27, Vero 76.
A further data set has as its target Cytochrome P450 3A (Homo sapiens, UniProt P08684+P20815+Q9HB55+P24462). The experiment in a line: Inhibition of CYP3A in human liver microsomes using testosterone as substrate. Format: ADME, Microsome. Background: Liver microsomes are a subcellular fraction often used to study metabolism.
The nature of data set [9]: Cytotoxicity against green monkey Vero 76 cells assessed as reduction in cell viability. The class given is toxicity, cell-based. As to conditions: chlorocebus sabaeus.
Data set [10] in a line: Half life in C57BL/6 mouse plasma at 2.5 mg/kg, iv measured upto 24 hrs post dosing by LC-MS/MS. The class given is ADME, organism-based. To be noted: in vivo.
Data set [11] is described as follows: Metabolic stability in human liver S9 fraction assessed as intrinsic clearance by HPLC-MS/MS analysis. Format: ADME, subcellular.
Data set [12] concerns the target Voltage-gated inwardly rectifying potassium channel KCNH2 (Homo sapiens, UniProt Q12809). Description: Antagonist activity at recombinant hERG expressed in CHO-K1 cells by Electrophysiology. The class given is toxicity, cell-based. For orientation: The hERG channel carries a current that helps repolarise heart muscle cells.
For data set [13], the system named is Chikungunya virus. The experiment in a line: Antiviral activity against CHIKV S27 in green monkey Vero 76 cells assessed as reduction in virus yield measured after 3 days by Virus yield reduction assay. The class given is functional. To be noted: S27, Vero 76, 72 h, time 3 day.
Data set [14] in a line: Half life in C57BL/6 mouse plasma at 10 mg/kg, po measured […] post dosing by LC-MS/MS. As to conditions: in vivo. The class given is ADME, organism-based.
Data set [15] has as its target Polyprotein P1234 (Chikungunya virus (strain S27-African prototype) (CHIKV)) (UniProt Q8JUX6). As to conditions: dose 0.27-600 µM, time 2000-8000 sec.
Data set [16] can be described thus: Toxicity in C57BL/6 mouse model assessed as effect on BUN level at 300 mg/kg/day, ip measured after 6 days post infection (reference value: 20 to 30). Format: organism-based. To be noted: in vivo, 144 h, time 6 day.
Data set [17] in a line: Metabolic stability in human liver microsomes assessed as intrinsic clearance by HPLC-MS/MS analysis. Format: ADME, Microsome.
The nature of data set [18]: Toxicity in C57BL/6 mouse model assessed as effect on DBILI level at 300 mg/kg/day, ip measured after 6 days post infection (reference value: 0.25 to 0.33). As to conditions: in vivo, 144 h, time 6 day. The class given is organism-based.
A short description of data set [19]: Toxicity in Sham-infected C57BL/6 mouse model assessed as footpad swelling at 300 mg/kg/day, ip measured after 6 days post infection (reference value: -4.6+/-5.5). Format: organism-based. To be noted: in vivo, 144 h, time 6 day.
Another data set deals with T2, Cytochrome P450 2C8 (Homo sapiens, UniProt P10632).
T2 sequence (P10632 whole entry): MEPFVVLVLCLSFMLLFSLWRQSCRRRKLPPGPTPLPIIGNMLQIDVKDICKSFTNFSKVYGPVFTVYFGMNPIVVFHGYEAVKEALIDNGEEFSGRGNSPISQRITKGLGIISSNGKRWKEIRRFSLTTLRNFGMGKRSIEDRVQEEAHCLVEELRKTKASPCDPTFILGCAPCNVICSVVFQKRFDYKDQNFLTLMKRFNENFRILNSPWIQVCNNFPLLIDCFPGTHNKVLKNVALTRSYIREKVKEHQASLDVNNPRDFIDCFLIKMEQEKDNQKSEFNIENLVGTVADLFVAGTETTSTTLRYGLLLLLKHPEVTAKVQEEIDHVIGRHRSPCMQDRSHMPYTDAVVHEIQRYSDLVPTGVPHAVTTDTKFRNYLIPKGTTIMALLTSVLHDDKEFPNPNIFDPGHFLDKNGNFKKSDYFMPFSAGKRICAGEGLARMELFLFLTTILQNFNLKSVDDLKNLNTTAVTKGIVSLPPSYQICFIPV
Description: Inhibition of CYP2C8 (unknown origin). The class given is ADME.

For a further data set, the target named is T3, Cytochrome P450 2B6 (Homo sapiens, UniProt P20813).
T3 sequence (P20813 whole entry): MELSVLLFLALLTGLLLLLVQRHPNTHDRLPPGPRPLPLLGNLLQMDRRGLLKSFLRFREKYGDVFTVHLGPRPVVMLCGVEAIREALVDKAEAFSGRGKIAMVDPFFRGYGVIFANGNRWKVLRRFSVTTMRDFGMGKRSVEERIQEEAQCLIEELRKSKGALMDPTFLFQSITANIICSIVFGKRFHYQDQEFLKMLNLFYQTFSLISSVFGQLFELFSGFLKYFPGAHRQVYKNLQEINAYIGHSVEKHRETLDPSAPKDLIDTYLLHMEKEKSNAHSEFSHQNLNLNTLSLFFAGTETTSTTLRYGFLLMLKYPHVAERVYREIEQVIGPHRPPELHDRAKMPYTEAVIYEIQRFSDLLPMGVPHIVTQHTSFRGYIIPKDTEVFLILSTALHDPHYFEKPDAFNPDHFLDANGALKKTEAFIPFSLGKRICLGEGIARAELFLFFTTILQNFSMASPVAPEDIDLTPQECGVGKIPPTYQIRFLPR
Description: Inhibition of CYP2B6 (unknown origin). Format: ADME.

Sequence of Polyprotein P1234 (Chikungunya virus (strain S27-African prototype) (CHIKV)) (Q8JUX6 whole entry): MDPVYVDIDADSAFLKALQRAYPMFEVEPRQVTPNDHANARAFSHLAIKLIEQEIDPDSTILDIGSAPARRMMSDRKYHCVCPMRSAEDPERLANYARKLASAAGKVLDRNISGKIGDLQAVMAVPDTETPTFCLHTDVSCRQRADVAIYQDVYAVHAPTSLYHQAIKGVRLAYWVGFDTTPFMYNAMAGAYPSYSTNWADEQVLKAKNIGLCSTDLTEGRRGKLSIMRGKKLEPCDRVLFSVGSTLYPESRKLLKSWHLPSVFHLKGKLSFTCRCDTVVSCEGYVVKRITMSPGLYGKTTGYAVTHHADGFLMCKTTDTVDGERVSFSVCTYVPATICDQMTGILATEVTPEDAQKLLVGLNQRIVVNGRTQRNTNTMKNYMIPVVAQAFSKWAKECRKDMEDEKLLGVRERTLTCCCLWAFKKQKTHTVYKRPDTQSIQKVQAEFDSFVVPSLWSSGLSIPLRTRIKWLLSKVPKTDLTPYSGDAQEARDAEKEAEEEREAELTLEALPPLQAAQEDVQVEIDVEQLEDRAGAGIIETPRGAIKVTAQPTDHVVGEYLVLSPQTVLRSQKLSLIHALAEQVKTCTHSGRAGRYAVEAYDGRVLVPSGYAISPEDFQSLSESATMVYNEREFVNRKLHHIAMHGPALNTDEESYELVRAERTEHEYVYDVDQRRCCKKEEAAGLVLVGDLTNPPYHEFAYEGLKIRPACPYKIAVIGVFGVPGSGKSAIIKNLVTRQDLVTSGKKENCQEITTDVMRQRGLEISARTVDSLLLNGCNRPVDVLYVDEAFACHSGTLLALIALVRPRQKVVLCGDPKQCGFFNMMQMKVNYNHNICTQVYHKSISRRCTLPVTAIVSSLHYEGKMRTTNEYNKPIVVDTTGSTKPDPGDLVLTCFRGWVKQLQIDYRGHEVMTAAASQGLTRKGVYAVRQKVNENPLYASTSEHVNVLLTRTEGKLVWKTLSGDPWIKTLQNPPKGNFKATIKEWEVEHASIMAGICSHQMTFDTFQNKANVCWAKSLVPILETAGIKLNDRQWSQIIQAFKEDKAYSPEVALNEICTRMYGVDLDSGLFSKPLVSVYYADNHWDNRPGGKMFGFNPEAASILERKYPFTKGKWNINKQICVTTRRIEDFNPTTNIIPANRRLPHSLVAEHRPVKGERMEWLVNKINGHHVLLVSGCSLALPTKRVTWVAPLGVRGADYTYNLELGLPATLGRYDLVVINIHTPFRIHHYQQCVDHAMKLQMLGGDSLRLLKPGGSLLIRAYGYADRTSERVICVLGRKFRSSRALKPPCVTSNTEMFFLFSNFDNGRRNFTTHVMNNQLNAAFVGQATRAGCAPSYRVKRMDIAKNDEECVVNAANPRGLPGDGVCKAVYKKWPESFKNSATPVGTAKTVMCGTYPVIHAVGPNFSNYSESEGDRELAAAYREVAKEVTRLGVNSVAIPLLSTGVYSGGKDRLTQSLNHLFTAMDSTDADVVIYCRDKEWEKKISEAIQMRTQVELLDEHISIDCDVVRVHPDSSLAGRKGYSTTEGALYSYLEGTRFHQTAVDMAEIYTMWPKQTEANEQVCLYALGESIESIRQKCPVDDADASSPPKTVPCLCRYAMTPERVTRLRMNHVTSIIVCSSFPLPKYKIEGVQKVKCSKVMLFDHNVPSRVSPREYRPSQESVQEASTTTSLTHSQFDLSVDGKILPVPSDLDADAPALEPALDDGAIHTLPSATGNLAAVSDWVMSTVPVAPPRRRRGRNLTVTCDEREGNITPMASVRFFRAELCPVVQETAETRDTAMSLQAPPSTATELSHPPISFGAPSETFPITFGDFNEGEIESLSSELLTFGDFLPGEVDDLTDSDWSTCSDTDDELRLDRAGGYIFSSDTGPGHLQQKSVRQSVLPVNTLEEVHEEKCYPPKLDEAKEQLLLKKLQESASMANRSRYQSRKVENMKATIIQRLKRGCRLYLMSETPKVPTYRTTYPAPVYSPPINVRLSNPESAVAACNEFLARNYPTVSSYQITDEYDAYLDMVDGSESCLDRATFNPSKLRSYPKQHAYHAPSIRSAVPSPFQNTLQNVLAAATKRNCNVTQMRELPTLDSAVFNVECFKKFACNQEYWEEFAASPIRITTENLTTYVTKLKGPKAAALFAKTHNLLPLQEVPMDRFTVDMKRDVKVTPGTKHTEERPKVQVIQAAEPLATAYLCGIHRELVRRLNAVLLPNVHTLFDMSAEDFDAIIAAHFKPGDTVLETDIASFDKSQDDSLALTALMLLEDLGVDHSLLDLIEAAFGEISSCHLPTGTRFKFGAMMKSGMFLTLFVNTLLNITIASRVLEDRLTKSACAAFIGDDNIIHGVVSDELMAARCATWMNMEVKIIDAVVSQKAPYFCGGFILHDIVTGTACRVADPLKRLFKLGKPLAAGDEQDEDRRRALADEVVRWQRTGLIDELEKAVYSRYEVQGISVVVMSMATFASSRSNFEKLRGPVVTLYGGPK
Sequence of Cytochrome P450 2D6 (P10635 whole entry): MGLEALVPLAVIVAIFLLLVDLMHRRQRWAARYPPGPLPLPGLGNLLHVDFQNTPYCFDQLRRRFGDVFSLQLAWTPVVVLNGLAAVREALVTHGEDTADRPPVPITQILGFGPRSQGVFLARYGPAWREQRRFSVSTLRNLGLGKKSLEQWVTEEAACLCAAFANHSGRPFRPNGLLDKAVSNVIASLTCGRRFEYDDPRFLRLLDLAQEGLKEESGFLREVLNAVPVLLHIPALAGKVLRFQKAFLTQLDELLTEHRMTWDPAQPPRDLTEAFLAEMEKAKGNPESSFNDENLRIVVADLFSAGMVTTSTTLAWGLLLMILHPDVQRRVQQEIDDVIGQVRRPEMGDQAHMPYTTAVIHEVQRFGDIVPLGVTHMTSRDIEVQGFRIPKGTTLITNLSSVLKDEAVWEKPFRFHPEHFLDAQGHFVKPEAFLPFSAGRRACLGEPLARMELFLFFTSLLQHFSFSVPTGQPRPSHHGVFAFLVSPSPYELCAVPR
Sequence of Voltage-gated inwardly rectifying potassium channel KCNH2 (Q12809 whole entry): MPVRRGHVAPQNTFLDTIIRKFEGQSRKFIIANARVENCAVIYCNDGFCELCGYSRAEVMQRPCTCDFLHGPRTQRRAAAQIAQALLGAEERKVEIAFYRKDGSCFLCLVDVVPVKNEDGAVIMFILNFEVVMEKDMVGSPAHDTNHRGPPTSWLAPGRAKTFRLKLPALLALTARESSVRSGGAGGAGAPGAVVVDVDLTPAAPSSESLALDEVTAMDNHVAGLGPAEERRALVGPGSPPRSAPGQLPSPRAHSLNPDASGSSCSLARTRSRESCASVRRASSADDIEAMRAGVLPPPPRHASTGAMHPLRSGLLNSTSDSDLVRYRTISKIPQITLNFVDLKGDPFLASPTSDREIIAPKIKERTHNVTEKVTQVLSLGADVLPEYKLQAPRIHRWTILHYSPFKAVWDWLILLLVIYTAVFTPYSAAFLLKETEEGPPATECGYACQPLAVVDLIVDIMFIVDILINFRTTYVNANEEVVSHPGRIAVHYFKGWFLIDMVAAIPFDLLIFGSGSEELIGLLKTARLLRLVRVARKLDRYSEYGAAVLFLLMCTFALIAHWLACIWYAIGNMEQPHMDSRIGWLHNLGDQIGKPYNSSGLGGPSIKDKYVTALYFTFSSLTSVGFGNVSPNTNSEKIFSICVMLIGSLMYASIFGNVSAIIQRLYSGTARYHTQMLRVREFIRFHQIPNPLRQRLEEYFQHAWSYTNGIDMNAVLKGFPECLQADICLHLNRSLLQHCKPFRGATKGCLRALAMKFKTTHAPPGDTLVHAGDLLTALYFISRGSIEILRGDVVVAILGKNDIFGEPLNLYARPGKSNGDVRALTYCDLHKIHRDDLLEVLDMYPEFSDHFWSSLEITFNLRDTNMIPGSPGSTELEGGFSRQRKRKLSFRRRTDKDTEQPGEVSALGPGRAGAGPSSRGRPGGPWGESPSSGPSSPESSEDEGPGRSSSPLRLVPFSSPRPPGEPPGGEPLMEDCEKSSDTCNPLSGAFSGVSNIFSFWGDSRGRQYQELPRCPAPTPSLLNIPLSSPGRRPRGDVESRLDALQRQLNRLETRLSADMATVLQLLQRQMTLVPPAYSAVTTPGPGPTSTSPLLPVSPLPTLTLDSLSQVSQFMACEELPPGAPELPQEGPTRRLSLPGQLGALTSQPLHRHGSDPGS

On to `CC1CCNc2c(C(=O)NC/C=C/S(C)(=O)=O)cccc21` (stereo not drawn), for which the result in the data set on Chikungunya virus [1] was Active. Moreover, the t1/2 is 104 min in data set [2], greater than 120 min in data set [3], 6 min in [10] and 49.8 min in [14]. Besides, the IC50 at Cytochrome P450 2D6 is greater than 100 µM; in data set [7] it was greater than 100 µM; at Cytochrome P450 3A, less than 0.03 µM; in data set [12], greater than 100 µM; on Cytochrome P450 2C8, greater than 100 µM; against Cytochrome P450 2B6 it was greater than 100 µM. The compound also returned an MRT in data set [4] of 3.6 min. This compound had a F in data set [5] of 95.6%. Further, the inhibition result in [6] is “Dose-Dependent Effect”. In addition, the EC50 with Chikungunya virus [8] was 390 nM. The CC50 in data set [9] is greater than 50 µM. Besides, the CLH in [11] is 22.7 µL/min/mg; in data set [17], less than 57.8 µL/min/mg. In addition, the EC90 in the data set on Chikungunya virus [13] was found to be 1600 nM. Further, the TDI result in data set [15] is “Active”. Moreover, the Activity in data set [16] is 18 mg/dL; in data set [18], 0.14 mg/dL; in data set [19], -1%.
